Among the data in patent publication US8088791B2, “Antibacterial agents” (Biots Scientific Management Pty Ltd, priority 2006, dated 2012) are MIC values, retold here.

Assay [1] concerns Staphylococcus aureus ATCC29213. The experiment in a line: Minimum Inhibitory Concentration (MIC) testing, broth microdilution, Staphylococcus aureus. Particulars: Staphylococcus aureus ATCC29213; read-out: Staphylococcus aureus MICs Activity. Type of assay: cell-based. The gist of the method: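 Broth microdilution per NCCLS M7-A5 in Mueller Hinton broth, with compound in 1.6% DMSO and inoculum at OD 0.09 diluted 1:100. Plates incubated 16–20 h at 37°C. MIC is the lowest concentration with no visible growth; scored A ≤8, B 16–64, C >64 μg/ml.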

Assay [2] relates to Bacillus subtilis 168CA. In words: Minimum Inhibitory Concentration (MIC) testing, broth microdilution, Bacillus subtilis. In kind it is cell-based. Particulars: Bacillus subtilis 168CA; read-out: Bacillus subtilis MICs Activity. The gist of the method:
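Broth microdilution followed NCCLS M7-A5, in rich broth such as Mueller Hinton, inoculum at OD 0.09 diluted 1:100, compounds in 1.6% DMSO before inoculum. After 16–20 h at 37 °C, MIC was the lowest concentration without visible growth. Score A: ≦8 μg/ml, B: 16–64 μg/ml, C: >64 μg/ml.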
(Broth dilution looks for growth in wells or tubes with falling amounts of substance.)

Values after ≈ are worked out from the molar mass of the structure shown.

As to `NC(=O)c1c(F)ccc(OCc2nc(-c3nccs3)no2)c1F` [Example 326, 2,6-Difluoro-3-(3-thiazol-2-yl-[1,2,4]oxadiazol-5-ylmethoxy)-benzamide], the MIC in assay [1] and in assay [2] was 16 to 64 µg/mL (≈ 47.3 to 189 µM) each time.
As for `NC(=O)c1c(F)ccc(OCc2nc(-c3cccnc3)no2)c1F` [Example 262, 2,6-Difluoro-3-[3-(3-pyridinyl)-1,2,4-oxadiazol-5-yl]methoxybenzenecarboxamide], the MIC in assay [1] and in assay [2] was 16 to 64 µg/mL (≈ 48.2 to 193 µM) throughout.
In the case of `COc1ccc(-c2nc(COc3ccc(F)c(C(N)=O)c3F)sc2-c2ccccc2N)cc1` [Example 283, 2,6-Difluoro-3-[5-(2-amino-phenyl)-4-(4-methoxy-phenyl)-thiazol-2-ylmethoxy]-benzamide], the MIC in assay [1] and in assay [2] was below 8 µg/mL in each case.
For `C=CCc1sc(COc2ccc(F)c(C(N)=O)c2F)nc1-c1ccc(OC)cc1` [Example 120, 3-[5-Allyl-4-(4-methoxy-phenyl)-thiazol-2-ylmethoxy]-2,6-difluoro-benzamide], the MIC in assay [1] and in assay [2] was below 8 µg/mL in each case.
With `COC(=O)c1ccc2nc(COc3ccc(F)c(C(N)=O)c3F)sc2c1` [Example 321, 2-(3-Carbamoyl-2,4-difluoro-phenoxymethyl)-benzothiazole-6-carboxylic acid methyl ester], the MIC in assay [1] and in assay [2] was below 8 µg/mL each time.
With `COc1cccc(-c2noc(COc3ccc(F)c(C(N)=O)c3F)n2)c1` [Example 256, 2,6-Difluoro-3-[3-(3-methoxyphenyl)-1,2,4-oxadiazol-5-yl]methoxybenzenecarboxamide], the results for the MIC in assay [1] and in assay [2] were 16 to 64 µg/mL (≈ 44.3 to 177 µM) and below 8 µg/mL, respectively.
In the case of `NC(=O)c1c(F)ccc(OCc2nc3cc(-c4cccc(O)c4)ccc3s2)c1F` [Example 136, 2,6-Difluoro-3-[5-(3-hydroxy-phenyl)-benzothiazol-2-ylmethoxy]-benzamide], the MIC in assay [1] and in assay [2] was below 8 µg/mL each time.
Regarding `COc1ccc(Br)c(-c2csc(COc3ccc(F)c(C(N)=O)c3F)n2)c1` [Example 100, 3-[4-(2-Bromo-5-methoxy-phenyl)-thiazol-2-ylmethoxy]-2,6-difluoro-benzamide], the MIC in assay [1] and in assay [2] was below 8 µg/mL in each case.
As for `NC(=O)c1c(F)ccc(OCc2nnc(-c3cccs3)o2)c1F` [Example 152, 2,6-Difluoro-3-(5-thiophen-2-yl-[1,3,4]oxadiazol-2-ylmethoxy)-benzamide], the MIC in assay [1] and in assay [2] was 16 to 64 µg/mL (≈ 47.4 to 190 µM) each time.
Take `COc1ccc(-c2nc(COc3ccc(F)c(C(N)=O)c3F)c(C)o2)cc1` [Example 296, 2,6-Difluoro-3-[2-(4-methoxy-phenyl)-5-methyl-oxazol-4-ylmethoxy]-benzamide]: the MIC in assay [1] and in assay [2] was below 8 µg/mL each time.
In the case of `NC(=O)c1c(F)ccc(OCc2nc(-c3ccc(Cl)cc3)co2)c1F` [Example 309, 3-[4-(4-Chloro-phenyl)-oxazol-2-ylmethoxy]-2,6-difluoro-benzamide], the MIC in assay [1] and in assay [2] was below 8 µg/mL each time.
Regarding `CCC1CC1CCCCOc1cccc(C(N)=O)c1` (stereo not drawn) [Example 91, 3-[4-(2-Ethylcyclopropyl)butoxy]benzenecarboxamide], the MIC in assay [1] and in assay [2] was below 8 µg/mL throughout.
As for `NC(=O)c1c(F)ccc(OCc2coc(-c3ccccc3)n2)c1F` [Example 132, 2,6-Difluoro-3-(2-phenyl-oxazol-4-ylmethoxy)-benzamide], the MIC in assay [1] and in assay [2] was below 8 µg/mL throughout.
`Cc1cnc(COc2ccc(F)c(C(N)=O)c2F)s1` [Example 192, 2,6-Difluoro-3-[(5-methyl-1,3-thiazol-2-yl)methoxy]benzenecarboxamide]: the MIC in assay [1] and in assay [2] was above 64 µg/mL in each case.
`NC(=O)c1c(F)ccc(OCc2nc(-c3cccc(O)c3)cs2)c1F` [Example 334, 2,6-Difluoro-3-[4-(3-hydroxy-phenyl)-thiazol-2-ylmethoxy]-benzamide]: the MIC in assay [1] is below 8 µg/mL; in assay [2], 16 to 64 µg/mL (≈ 44.2 to 177 µM).
The corresponding values for `NC(=O)c1c(F)ccc(OCc2nc(-c3ccccn3)cs2)c1F` [Example 115, 2,6-Difluoro-3-(4-pyridin-2-yl-thiazol-2-ylmethoxy)-benzamide] are below 8 µg/mL and 16 to 64 µg/mL (≈ 46.1 to 184 µM).
The corresponding values for `NC(=O)c1c(F)ccc(OCc2nc3cc(Cl)ccc3o2)c1F` [Example 210, 3-[(5-Chloro-1,3-benzoxazol-2-yl)methoxy]-2,6-difluorobenzenecarboxamide] are below 8 µg/mL and below 8 µg/mL.
The matching figures for `CCCCCC/C=C/COc1cccc(C(N)=O)c1` [Example 49, 3-[(E)-2-Nonenyloxy]benzenecarboxamide]: below 8 µg/mL and below 8 µg/mL.
`NC(=O)c1c(F)ccc(OCc2nc(-c3ccc(C(F)(F)F)cc3)cs2)c1F` [Example 319, 2,6-Difluoro-3-[4-(4-trifluoromethyl-phenyl)-thiazol-2-ylmethoxy]-benzamide]: the MIC in assay [1] and in assay [2] was below 8 µg/mL in each case.
For the compound `NC(=O)c1cccc(OCC(=O)OC2CCCCC2)c1` [Example 27, Cyclohexyl 2-[3-(aminocarbonyl)phenoxy]acetate], the MIC in assay [1] and in assay [2] was above 64 µg/mL in each case.
`C=CCCCCOc1cccc(C(N)=O)c1` [Example 15, 3-(5-Hexenyloxy)benzenecarboxamide]: the MIC in assay [1] and in assay [2] was 16 to 64 µg/mL (≈ 73 to 292 µM) each time.
Turning to `NC(=O)c1c(F)ccc(OCc2nc3cc(C4CCCCC4)ccc3s2)c1F` [Example 315], the MIC in assay [1] and in assay [2] was below 8 µg/mL each time.
`COC(=O)c1sc(COc2ccc(F)c(C(N)=O)c2F)nc1-c1ccc(OC)cc1` [Example 313, 2-(3-Carbamoyl-2,4-difluoro-phenoxymethyl)-4-(4-methoxy-phenyl)-thiazole-5-carboxylic acid methyl ester]: the MIC in assay [1] and in assay [2] was below 8 µg/mL in each case.
Regarding `Cc1csc(COc2ccc(F)c(C(N)=O)c2F)c1` [Example 187, 2,6-Difluoro-3-[(4-methyl-2-thienyl)methoxy]benzenecarboxamide], the MIC in assay [1] and in assay [2] was 16 to 64 µg/mL (≈ 56.5 to 226 µM) throughout.
Regarding `CCCCCCOc1c(F)ccc(C(N)=O)c1F` [Example 80, 2,4-Difluoro-3-(hexyloxy)benzenecarboxamide], the MIC in assay [1] and in assay [2] was 16 to 64 µg/mL (≈ 62.2 to 249 µM) throughout.
As for `NC(=O)c1c(F)ccc(OCc2nc(-c3ccccc3)no2)c1F` [Example 240, 2,6-Difluoro-3-[(3-phenyl-1,2,4-oxadiazol-5-yl)methoxy]benzenecarboxamide], the MIC in assay [1] and in assay [2] was below 8 µg/mL in each case.
As to `Cc1ccc2ccc(COc3ccc(F)c(C(N)=O)c3F)nc2c1` [Example 103, 3-(7-Methylquinolin-2-ylmethoxy)-2,6-difluoro-benzamide], the MIC in assay [1] and in assay [2] was below 8 µg/mL each time.
As for `CC/C=C\CCCCOc1cccc(C(N)=O)c1` [Example 52, 3-[(Z)-5-Octenyloxy]benzenecarboxamide], the MIC in assay [1] and in assay [2] was below 8 µg/mL in each case.
`C/C=C/COc1cccc(C(N)=O)c1` [Example 30, 3-[2-Butenyloxy]benzenecarboxamide]: the MIC in assay [1] and in assay [2] was above 64 µg/mL throughout.
Regarding `CCCCCCOCCOc1cccc(C(N)=O)c1` [Example 54, 3-[2-(Hexyloxy)ethoxy]benzenecarboxamide], the MIC in assay [1] and in assay [2] was 16 to 64 µg/mL (≈ 60.3 to 241 µM) throughout.
For the compound `COc1ccc(-c2nc(COc3ccc(F)c(C(N)=O)c3F)sc2-c2ccccc2OC)cc1` [Example 280, 2,6-Difluoro-3-[5-(2-methoxy-phenyl)-4-(4-methoxy-phenyl)-thiazol-2-ylmethoxy]-benzamide], the MIC in assay [1] and in assay [2] was below 8 µg/mL in each case.
On to `Cc1ccc2nc(COc3ccc(F)c(C(N)=O)c3F)sc2c1` [Example 229, 2,6-Difluoro-3-[(6-methyl-1,3-benzothiazol-2-yl)methoxy]benzenecarboxamide], for which the MIC in assay [1] and in assay [2] was below 8 µg/mL each time.
`C=CCCCCCCOc1cccc(C(N)=O)c1` [Example 12, 3-(7-Octenyloxy)benzenecarboxamide]: the MIC in assay [1] is below 8 µg/mL; in assay [2] it was 16 to 64 µg/mL (≈ 64.7 to 259 µM).
As to `NC(=O)c1c(F)ccc(OCc2nc(-c3cccs3)no2)c1F` [Example 153, 2,6-Difluoro-3-(3-thiophen-2-yl-[1,2,4]oxadiazol-5-ylmethoxy)-benzamide], the MIC in assay [1] and in assay [2] was below 8 µg/mL in each case.
For `CCCCCCCCCCOc1ccc(F)c(C(N)=O)c1` [Example 71, 2-Fluoro-5-(decyloxy)benzenecarboxamide], the MIC in assay [1] and in assay [2] was below 8 µg/mL throughout.
For `NC(=O)c1c(F)ccc(OCc2nc3cc(C4=CCCCC4)ccc3s2)c1F` [Example 314], the MIC in assay [1] was 16 to 64 µg/mL (≈ 40 to 160 µM); in assay [2] it was below 8 µg/mL.
The matching figures for `NC(=O)c1c(Cl)ccc(OCc2nc3cc(Cl)ccc3s2)c1F` [Example 220, 6-Chloro-3-[(5-chloro-1,3-benzothiazol-2-yl)methoxy]-2-fluorobenzenecarboxamide]: below 8 µg/mL and below 8 µg/mL.
The matching figures for `Cc1csc(COc2ccc(F)c(C(N)=O)c2F)n1` [Example 193, 2,6-Difluoro-3-[(4-methyl-1,3-thiazol-2-yl)methoxy]benzenecarboxamide]: 16 to 64 µg/mL (≈ 56.3 to 225 µM) and 16 to 64 µg/mL (≈ 56.3 to 225 µM).
`COc1cccc(COc2ccc(F)c(C(N)=O)c2F)c1` [Example 116, 2,6-Difluoro-3-(3-methoxybenzyloxy)-benzamide]: the MIC in assay [1] and in assay [2] was 16 to 64 µg/mL (≈ 54.6 to 218 µM) throughout.
